SMILES strings stand for the structures.

In series [1] the test system is clozapine-induced hypersalivation. Nature of the series: three clozapine-treated patients with hypersalivation. The class given is in vivo, human. An excerpt:
Clozapine is regarded as a particularly effective drug by many psychiatrists but it has a range of severe side effects. From the patient's point of view one of the most troublesome is hypersalivation. This may not sound very serious but the constant flow of large volumes of saliva is in fact very distressing for the patient and for those who are associated with the patient. The mechanism of the hypersalivation is unknown.

Series [2] relates to schizophrenia. Nature of the series: case report: schizophrenia, fish oil switched to ethyl-EPA. The class given is in vivo, human. The text has this: This provided around 1.9 g/day of EPA and 0.6 g/day of DHA. They were not taking other antipsychotic drugs. […] However, when they did this the symptoms returned and it was concluded that they had to take around 2 g/day of EPA to remain well. When the purified ethyl-EPA became available, they were switched to 4×0.5 g capsules, also providing around 2 g/day. […] They therefore dropped the dose to 1 g/day.

Series [3] deals with schizophrenia. Briefly: case history: schizophrenia, ethyl-EPA added to haloperidol. The class given is in vivo, human. The note with it: 4 g/day in addition to haloperidol, eight weeks. The text has this:
A person had become ill with schizophrenia. They had florid hallucinations and paranoia, but also withdrew themself from most of their friendships and lived alone. […] They lived alone, ceased to communicate with most of their friends, and went around to town alone and muttering to […]. Their psychiatrist heard about ethyl-EPA and decided to try it in addition to the standard drug. After eight weeks on treatment with 4 g/day their outlook was transformed. […] They were even persuaded to go on holiday with their family where they enjoyed themself and made new friends. The EPA therefore reversed the extreme withdrawal which appeared to have been exaggerated by haloperidol.

In series [4] the test system is schizophrenic breakdown. The note with it: 2 g/day with olanzapine, after about 4 weeks. An excerpt: (§1) In addition to citalopram they were then given 1 g/day of ethyl-EPA. […] Another case was a young person who dropped out of college with a schizophrenic breakdown.
The test system of series [5] is patients who had schizophrenia. Nature of the series: randomised, placebo-controlled study of ethyl-EPA in clozapine-treated patients with schizophrenia (PANSS, MADRS). As to conditions: 1 g or 2 g per day versus placebo, 12 weeks. The class given is in vivo, human. The text has this:
Although the case reports of the effects of ethyl-EPA are convincing and in some cases dramatic, unequivocal proof of its efficacy must come from randomised, placebo-controlled trials. We therefore set up a randomised, placebo-controlled study of EPA in 34 patients who had schizophrenia according to the criteria set out in the American Psychiatric Association's Diagnostic and Statistical Manual of Mental Disorders (4th edition, DSM-IV). All of these patients were being treated with clozapine drugs but all remained seriously ill, with schizophrenic symptoms. Like many schizophrenics, some of the patients were also depressed. All were assessed at baseline and after 12 weeks using the Positive and Negative Symptom Scale for Schizophrenia (PANSS) and the Montgomery-Asberg Depression Rating Scale (MADRS). After giving informed consent, all the patients were randomised on a double blind basis to one of three groups: placebo, or 1 g or 2 g of ethyl-EPA per day in the form of 0.5 g capsules. Placebo and EPA capsules were indistinguishable from one another in appearance. All the patients improved to some degree so all the changes are percentage improvements

Series [6] relates to dementia. Briefly: case report: person with dementia. Format: in vivo, human. As to conditions: 4x0.5 g capsules per day, within four weeks. An excerpt: Dementia: A person developed dementia, probably of Alzheimer type but possibly with multi-infarct contributions because of associated cardiovascular disease. As often occurs they also became withdrawn and depressed but, unfortunately, this state was interrupted by irrational and violent outbursts, usually directed at members of their family, but also sometimes against complete strangers. They were tried on two cholinergic drugs: although these produced a small improvement in their cognitive state they did nothing for their depression, irritability and anger. They were tried on a dose of 4×0.5 g capsules of pure ethyl-EPA, two given in the morning and two in the evening. […] Their family also thought their cognition had improved but this is difficult to be certain of because of their improved mood.

Series [7] deals with Huntington's disease. Briefly: randomised double blind trial of 96% pure ethyl-EPA in Huntington's disease. The note with it: 2 g/day, 6 months. Format: in vivo, human. The procedure:
Because early Huntington's disease may present with schizophrenia-like features, a randomised trial of 96% pure ethyl-EPA was set up in seven severely disabled patients in the final stages of Huntington's disease. All required 24 hour nursing care, had severe movement disorders, were irritable and were partially demented. They were randomised on a double blind basis to receive 2 g/day ethyl-EPA or 2 g/day placebo for 6 months. […] In four of the patients, two on ethyl-EPA and two on placebo, the brain degeneration was assessed at the beginning and end of the study by magnetic resonance imaging (MRI). MRI allows an accurate assessment of the size of the lateral ventricles, the fluid-filled spaces within the cerebral hemispheres. As Huntington's disease progresses, the lateral ventricles enlarge indicating loss of brain tissue. In the two patients on placebo over 6 months the ventricles enlarged as expected.

For series [8], the system named is schizophrenia. Briefly: case history: schizophrenia, E-EPA added to clozapine. The note with it: 2 g/day in addition to clozapine 900 mg/day. The class given is in vivo, human. The text has this:
This mechanism is thought to be responsible for their rapid effects on the so-called “positive” symptoms of schizophrenia (such as hallucinations, delusions and thought disorder). […] The D2 blocking action is also responsible for many of the adverse effects of these drugs, which include extrapyramidal movement disorders, excess prolactin secretion, and tardive dyskinesias. Examples of widely used drugs in this class include chlorpromazine, thioridazine, haloperidol, pimozide, flupenthixol and sulpiride.
These may include blockade of one or more of the other dopamine receptors such as D1, D3 or D4, and also usually including blockade of one or more classes of serotonin receptors. […] They may also have actions at other receptors, including histamine, glutamate and acetyl choline receptors.
The patient was treated with clozapine, eventually reaching a maximum dose of 900 mg/day.
E-EPA in a dose of 2 g/day was then administered in addition to clozapine.

Series [9] deals with schizophrenia, drug-induced obesity. Format: in vivo, human. The note with it: ethyl-EPA in addition to olanzapine, six months. An excerpt: Obesity is another common side effect of antipsychotropic drugs. In this respect some of the newer drugs like olanzapine frequently seem to be even worse offenders than the typical neuroleptics. […] They preferred the olanzapine but it still left their withdrawn and unable to communicate normally with friends or family. To their distress it caused them to put on over 10 kg in weight. Their doctor decided to test ethyl-EPA in addition to olanzapine.

The test system of series [10] is severe depression. Briefly: case history: severe depression, ethyl-EPA added to citalopram. The class given is in vivo, human. As to conditions: 1 g/day in addition to citalopram, after four weeks.
Text: as §1

With `CC/C=C\C/C=C\C/C=C\C/C=C\C/C=C\CCCC(=O)OCC` [ethyl-EPA], in [1], the psychiatric state result is “substantial improvement in psychiatric state” and the salivation result is given as “dramatically reduced the salivation to normal levels”. Also, the “recurrence of symptoms after dose reduction” value in series [2] (1 g/day) is recorded as “did not lead to a recurrence of symptoms”. In series [2] (4x0.5 g capsules, around 2 g/day), the “control of schizophrenia symptoms” value is “controlled their symptoms very well”. The residual hallucinations result in series [3] is reported as “residual hallucinations disappeared”. Also, in series [4], the clarity of thinking result was “thinking more clearly”. For the same compound, in [5], the side effects result is on record as “no reported side effects attributable to the E-EPA”. Further, the “mood and irritability in dementia” value in [6] was “remarkable improvement”. In [7] (three patients), the “clinical course of Huntington's disease” value was “improved”. Also, the “lateral ventricle size by MRI” value in series [7] (two patients) is recorded as “reduction in lateral ventricle size”. Also, in [8], the clozapine-induced hypersalivation result was “considerably reduced” and the “effect on schizophrenic illness” value is listed as “dramatic within two weeks”. For the same compound, in series [9], the withdrawn state entry is listed as “gradually improved”. For the same compound, the effect on mood result in [10] was “lightening of mood”.

These data come from patent US6384077B1, “Highly purified EPA for treatment of schizophrenia and related disorders” (Laxdale Limited, priority 1999, dated 2002).
